The values that follow come from patent US20120276545A1, “METHOD FOR USING DIVISION ARRESTED CELLS IN SCREENING ASSAYS” (LIFE TECHNOLOGIES CORPORATION, priority 2002, published 2012).

Assay [1] addresses T1, 5HT2c (Rattus norvegicus, UniProt P08909).
T1 sequence (P08909 33-460): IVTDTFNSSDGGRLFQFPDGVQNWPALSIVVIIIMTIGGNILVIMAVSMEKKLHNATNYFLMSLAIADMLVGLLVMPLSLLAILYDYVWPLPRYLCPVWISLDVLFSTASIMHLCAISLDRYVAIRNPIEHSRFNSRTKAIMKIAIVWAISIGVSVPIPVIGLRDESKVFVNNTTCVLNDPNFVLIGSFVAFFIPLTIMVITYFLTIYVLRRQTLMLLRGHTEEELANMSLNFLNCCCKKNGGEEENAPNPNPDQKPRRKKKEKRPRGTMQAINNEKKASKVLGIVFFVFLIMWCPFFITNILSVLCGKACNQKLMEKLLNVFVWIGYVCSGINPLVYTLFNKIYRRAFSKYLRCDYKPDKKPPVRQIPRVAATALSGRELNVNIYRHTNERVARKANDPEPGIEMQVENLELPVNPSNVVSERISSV
In words: Ca2+ mobilization by FACS (Indo-1) in NIH3T3-POP cells expressing 5HT2c. It counts as cell-based. Conditions: Mesulergine (10 μM) pretreated division arrested cells, 10 μM 5HT. From the text:
(§1) In order to measure and to analyze Ca^2+ mobilization, a commercially available cell sorter was used. Excitation was set at 360 nm, and emissions were set at both 400 (+/−15 nm) and 500 (+/−20)nm. The emissions were monitored simultaneously, and the emission ratio at 400 nm/500 nm was used to report the intracellular rise of Ca^2+ concentration. Untreated cells were used to set a baseline ratio.

Assay [2] concerns parental NIH3T3 cells. Nature of the assay: Ca2+ mobilization control in untransfected parental NIH3T3 cells. It is filed as cell-based. Conditions: parental NIH3T3 cells not transfected; data not shown.
Source text: as §1
In general terms: A change in cytosolic calcium serves as a functional read-out for many receptors and channels.

In the case of `CN1C[C@@H](NS(=O)(=O)N(C)C)C[C@@H]2c3cccc4c3c(cn4C)C[C@H]21` [Mesulergine], the “cells responding to serotonin in Ca++ mobilization” value in assay [1] worked out at 0.1%.
As for `NCCc1c[nH]c2ccc(O)cc12` [serotonin], the “fluorescence change when treated with serotonin” value in assay [2] is on record as “no fluorescence change”.
